Source: patent US20100092526A1, “NANOEMULSION THERAPEUTIC COMPOSITIONS AND METHODS OF USING THE SAME” (NanoBio Corporation, priority 2008, published 2010)

Tests used:
Klebsiella pneumoniae = test: MIC/MBC of nanoemulsions against gram-negative isolates (CLSI, alamar blue); assay type: cell-based; details: Klebsiella pneumoniae (n = 5), nanoemulsions in the presence of 5 mM EDTA
Escherichia coli = test: as above; assay type: cell-based; details: Escherichia coli (n = 5), nanoemulsions in the presence of 5 mM EDTA
Proteus mirabilis = test: as above; assay type: cell-based; details: Proteus mirabilis (n = 5), nanoemulsions in the presence of 5 mM EDTA
Acinetobacter baumannii [1] = test: as above; assay type: cell-based; details: Acinetobacter baumannii (n = 5)
Pseudomonas aeruginosa [2] = test: as above; assay type: cell-based; details: Pseudomonas aeruginosa (n = 5)
Burkholderia cepacia = test: as above; assay type: cell-based; details: Burkholderia cepacia (n = 5); nanoemulsions in the presence of 5 mM EDTA; in µg/mL
[3] = system: Stenotrophomonas maltophilia; test: as above; assay type: cell-based; details: Stenotrophomonas maltophilia (n = 5); nanoemulsions in the presence of 5 mM EDTA
Pseudomonas aeruginosa [4] = test: MIC/MBC against CF isolates (CLSI, alamar blue)
Burkholderia cenocepacia = test: MIC/MBC against CF isolates (CLSI, alamar blue)
[5] = system: Stenotrophomonas maltophilia; test: MIC/MBC against CF isolates (CLSI, alamar blue)
Acinetobacter baumannii [6] = test: MIC/MBC against clinical isolates (CLSI, alamar blue)
[7] = nanoemulsions in the presence of 5 mM EDTA
[8] = P. aeruginosa, NE with 5 mM EDTA
[9] = B. cenocepacia, NE with 5 mM EDTA
[10] = 11 CF Stenotrophomonas isolates
[11] = CF Stenotrophomonas isolate NB41
[12] = CF Stenotrophomonas isolate NB42
[13] = CF Stenotrophomonas isolate NB43
[14] = CF Stenotrophomonas isolate NB44
[15] = CF Stenotrophomonas isolate NB45
[16] = CF Stenotrophomonas isolate Steno 1
[17] = CF Stenotrophomonas isolate Steno 2
[18] = CF Stenotrophomonas isolate Steno 3
[19] = CF Stenotrophomonas isolate Steno 4
[20] = CF Stenotrophomonas isolate Steno 6
[21] = CF Stenotrophomonas isolate Steno 8
[22] = S. maltophilia, NE with 1 mM EDTA
[23] = Stenotrophomonas, each drug alone
[24] = A. baumannii, NE with 1 mM EDTA

Colistin
MIC50 (Klebsiella pneumoniae): ≤ 0.5 µg/mL | MIC Range (Klebsiella pneumoniae; in µg/mL): <=0.5 | MIC50 (Escherichia coli): ≤ 0.5 µg/mL | MIC Range (Escherichia coli; in µg/mL): <=0.5 | MIC50 (Proteus mirabilis): > 4 µg/mL | MIC Range (Proteus mirabilis; in µg/mL): >4 | % resistant (Acinetobacter baumannii [1]): 0.0% | % susceptible (Acinetobacter baumannii [1]): 100.0% | MIC50 (Acinetobacter baumannii [1]; [7]): ≤ 0.5 µg/mL | MIC Range (Acinetobacter baumannii [1]; [7]): <=0.5-2 ^ | % resistant (Pseudomonas aeruginosa [2]): 0.0% | % susceptible (Pseudomonas aeruginosa [2]): 100.0% | MIC50 (Pseudomonas aeruginosa [2]; [7]): 1 µg/mL | MIC Range (Pseudomonas aeruginosa [2]; [7]): <=0.5-2 ^ | MIC Range (Burkholderia cepacia): >4 | MIC50 [3]: ≤ 0.5 µg/mL | MIC Range [3]: <=0.5-1 ^ | MBC 50 (Pseudomonas aeruginosa [4]; 20 CF Pseudomonas isolates): 4 µg/mL | MBC 90 (Pseudomonas aeruginosa [4]; 20 CF Pseudomonas isolates): 8 µg/mL | MIC50 (Pseudomonas aeruginosa [4]; 20 CF Pseudomonas isolates): 2 µg/mL | MIC90 (Pseudomonas aeruginosa [4]; 20 CF Pseudomonas isolates): 2 µg/mL | MBC (Pseudomonas aeruginosa [4]; CF Pseudomonas isolate NB1): >8 µg/mL | MIC (Pseudomonas aeruginosa [4]; CF Pseudomonas isolate NB1): 2 µg/mL | MBC (Pseudomonas aeruginosa [4]; CF Pseudomonas isolate NB2): 8 µg/mL | MIC (Pseudomonas aeruginosa [4]; CF Pseudomonas isolate NB2): 1 µg/mL | MBC (Pseudomonas aeruginosa [4]; CF Pseudomonas isolate NB3): 8 µg/mL | MIC (Pseudomonas aeruginosa [4]; CF Pseudomonas isolate NB3): 1 µg/mL | MBC (Pseudomonas aeruginosa [4]; CF Pseudomonas isolate NB4): 4 µg/mL | MIC (Pseudomonas aeruginosa [4]; CF Pseudomonas isolate NB4): 2 µg/mL | MBC (Pseudomonas aeruginosa [4]; CF Pseudomonas isolate NB5): 8 µg/mL | MIC (Pseudomonas aeruginosa [4]; CF Pseudomonas isolate NB5): 2 µg/mL | MBC (Pseudomonas aeruginosa [4]; CF Pseudomonas isolate NB6): 4 µg/mL | MIC (Pseudomonas aeruginosa [4]; CF Pseudomonas isolate NB6): 2 µg/mL | MBC (Pseudomonas aeruginosa [4]; CF Pseudomonas isolate NB7): 4 µg/mL | MIC (Pseudomonas aeruginosa [4]; CF Pseudomonas isolate NB7): 2 µg/mL | MBC (Pseudomonas aeruginosa [4]; CF Pseudomonas isolate NB8): 8 µg/mL | MIC (Pseudomonas aeruginosa [4]; CF Pseudomonas isolate NB8): 2 µg/mL | MBC (Pseudomonas aeruginosa [4]; CF Pseudomonas isolate NB9): 8 µg/mL | MIC (Pseudomonas aeruginosa [4]; CF Pseudomonas isolate NB9): 2 µg/mL | MBC (Pseudomonas aeruginosa [4]; CF Pseudomonas isolate NB10): 2 µg/mL | MIC (Pseudomonas aeruginosa [4]; CF Pseudomonas isolate NB10): 2 µg/mL | MBC (Pseudomonas aeruginosa [4]; CF Pseudomonas isolate NB11): 4 µg/mL | MIC (Pseudomonas aeruginosa [4]; CF Pseudomonas isolate NB11): 1 µg/mL | MBC (Pseudomonas aeruginosa [4]; CF Pseudomonas isolate NB12): 8 µg/mL | MIC (Pseudomonas aeruginosa [4]; CF Pseudomonas isolate NB12): 4 µg/mL | MBC (Pseudomonas aeruginosa [4]; CF Pseudomonas isolate NB13): 8 µg/mL | MIC (Pseudomonas aeruginosa [4]; CF Pseudomonas isolate NB13): 2 µg/mL | MBC (Pseudomonas aeruginosa [4]; CF Pseudomonas isolate NB14): 4 µg/mL | MIC (Pseudomonas aeruginosa [4]; CF Pseudomonas isolate NB14): 2 µg/mL | MBC (Pseudomonas aeruginosa [4]; CF Pseudomonas isolate NB15): 8 µg/mL | MIC (Pseudomonas aeruginosa [4]; CF Pseudomonas isolate NB15): 2 µg/mL | MBC (Pseudomonas aeruginosa [4]; CF Pseudomonas isolate NB16): 4 µg/mL | MIC (Pseudomonas aeruginosa [4]; CF Pseudomonas isolate NB16): 2 µg/mL | MBC (Pseudomonas aeruginosa [4]; CF Pseudomonas isolate NB17): 4 µg/mL | MIC (Pseudomonas aeruginosa [4]; CF Pseudomonas isolate NB17): 1 µg/mL | MBC (Pseudomonas aeruginosa [4]; CF Pseudomonas isolate NB18): 4 µg/mL | MIC (Pseudomonas aeruginosa [4]; CF Pseudomonas isolate NB18): 1 µg/mL | MBC (Pseudomonas aeruginosa [4]; CF Pseudomonas isolate NB19): 4 µg/mL | MIC (Pseudomonas aeruginosa [4]; CF Pseudomonas isolate NB19): 2 µg/mL | MBC (Pseudomonas aeruginosa [4]; CF Pseudomonas isolate NB20): >8 µg/mL | MIC (Pseudomonas aeruginosa [4]; CF Pseudomonas isolate NB20): 2 µg/mL | MBC 90 (Pseudomonas aeruginosa [4]; [8]): 8 µg/mL | MIC90 (Pseudomonas aeruginosa [4]; [8]): 2 µg/mL | MBC 50 (Pseudomonas aeruginosa [4]; second MBC 50 line of the summary, Stenotrophomonas, values equal those of the CF Pseudomonas isolates): 4 µg/mL | MBC 90 (Pseudomonas aeruginosa [4]; second MBC 90 line of the summary, Stenotrophomonas, values equal those of the CF Pseudomonas isolates): 8 µg/mL | MBC 50 (Burkholderia cenocepacia; 10 CF Burkholderia isolates): >32 µg/mL | MBC 90 (Burkholderia cenocepacia; 10 CF Burkholderia isolates): >32 µg/mL | MIC50 (Burkholderia cenocepacia; 10 CF Burkholderia isolates): >32 µg/mL | MIC90 (Burkholderia cenocepacia; 10 CF Burkholderia isolates): >32 µg/mL | MBC 90 (Burkholderia cenocepacia; [9]): > 32 µg/mL | MIC90 (Burkholderia cenocepacia; [9]): > 32 µg/mL | MBC 50 (Burkholderia cenocepacia; Burkholderia, each drug alone): >32 µg/mL | MBC 90 (Burkholderia cenocepacia; Burkholderia, each drug alone): >32 µg/mL | MIC50 (Burkholderia cenocepacia; Burkholderia, each drug alone): >32 µg/mL | MIC90 (Burkholderia cenocepacia; Burkholderia, each drug alone): >32 µg/mL | MBC (Burkholderia cenocepacia; CF Burkholderia isolate NB21): >32 µg/mL | MIC (Burkholderia cenocepacia; CF Burkholderia isolate NB21): >32 µg/mL | MBC (Burkholderia cenocepacia; CF Burkholderia isolate NB22): >32 µg/mL | MIC (Burkholderia cenocepacia; CF Burkholderia isolate NB22): >32 µg/mL | MBC (Burkholderia cenocepacia; CF Burkholderia isolate NB23): >32 µg/mL | MIC (Burkholderia cenocepacia; CF Burkholderia isolate NB23): >32 µg/mL | MBC (Burkholderia cenocepacia; CF Burkholderia isolate NB24): >32 µg/mL | MIC (Burkholderia cenocepacia; CF Burkholderia isolate NB24): >32 µg/mL | MBC (Burkholderia cenocepacia; CF Burkholderia isolate NB25): >32 µg/mL | MIC (Burkholderia cenocepacia; CF Burkholderia isolate NB25): >32 µg/mL | MBC (Burkholderia cenocepacia; CF Burkholderia isolate NB26): >32 µg/mL | MIC (Burkholderia cenocepacia; CF Burkholderia isolate NB26): 32 µg/mL | MBC (Burkholderia cenocepacia; CF Burkholderia isolate NB27): >32 µg/mL | MIC (Burkholderia cenocepacia; CF Burkholderia isolate NB27): >32 µg/mL | MBC (Burkholderia cenocepacia; CF Burkholderia isolate NB28b): >32 µg/mL | MIC (Burkholderia cenocepacia; CF Burkholderia isolate NB28b): >32 µg/mL | MBC (Burkholderia cenocepacia; CF Burkholderia isolate NB29): >32 µg/mL | MIC (Burkholderia cenocepacia; CF Burkholderia isolate NB29): >32 µg/mL | MBC (Burkholderia cenocepacia; CF Burkholderia isolate NB30): >32 µg/mL | MIC (Burkholderia cenocepacia; CF Burkholderia isolate NB30): >32 µg/mL | MBC 50 [5, 10]: >32 µg/mL | MBC 90 [5, 10]: >32 µg/mL | MIC50 [5, 10]: 16 µg/mL | MIC90 [5, 10]: >32 µg/mL | MBC [5, 11]: 32 µg/mL | MIC [5, 11]: 2 µg/mL | MBC [5, 12]: 8 µg/mL | MIC [5, 12]: 2 µg/mL | MBC [5, 13]: >32 µg/mL | MIC [5, 13]: 16 µg/mL | MBC [5, 14]: >32 µg/mL | MIC [5, 14]: 32 µg/mL | MBC [5, 15]: 16 µg/mL | MIC [5, 15]: 8 µg/mL | MBC [5, 16]: >32 µg/mL | MIC [5, 16]: >32 µg/mL | MBC [5, 17]: >32 µg/mL | MIC [5, 17]: 32 µg/mL | MBC [5, 18]: >32 µg/mL | MIC [5, 18]: >32 µg/mL | MBC [5, 19]: 4 µg/mL | MIC [5, 19]: 1 µg/mL | MBC [5, 20]: >32 µg/mL | MIC [5, 20]: 16 µg/mL | MBC [5, 21]: 32 µg/mL | MIC [5, 21]: 8 µg/mL | MBC 90 [5, 22]: > 32 µg/mL | MIC90 [5, 22]: > 32 µg/mL | MBC 50 [5, 23]: >32 µg/mL | MBC 90 [5, 23]: >32 µg/mL | MIC50 [5, 23]: 16 µg/mL | MIC90 [5, 23]: >32 µg/mL | MBC 50 (Acinetobacter baumannii [6]; 10 Acinetobacter isolates): 4 µg/mL | MBC 90 (Acinetobacter baumannii [6]; 10 Acinetobacter isolates): >16 µg/mL | MIC50 (Acinetobacter baumannii [6]; 10 Acinetobacter isolates): 1 µg/mL | MIC90 (Acinetobacter baumannii [6]; 10 Acinetobacter isolates): 1 µg/mL | MBC 90 (Acinetobacter baumannii [6]; [24]): > 16 µg/mL | MIC90 (Acinetobacter baumannii [6]; [24]): 1 µg/mL | MBC (Acinetobacter baumannii [6]; Acinetobacter isolate NB31): 1 µg/mL | MIC (Acinetobacter baumannii [6]; Acinetobacter isolate NB31): 1 µg/mL | MBC (Acinetobacter baumannii [6]; Acinetobacter isolate NB32): 8 µg/mL | MIC (Acinetobacter baumannii [6]; Acinetobacter isolate NB32): 1 µg/mL | MBC (Acinetobacter baumannii [6]; Acinetobacter isolate NB33): 4 µg/mL | MIC (Acinetobacter baumannii [6]; Acinetobacter isolate NB33): 1 µg/mL | MBC (Acinetobacter baumannii [6]; Acinetobacter isolate NB34): 1 µg/mL | MIC (Acinetobacter baumannii [6]; Acinetobacter isolate NB34): 1 µg/mL | MBC (Acinetobacter baumannii [6]; Acinetobacter isolate NB35): 4 µg/mL | MIC (Acinetobacter baumannii [6]; Acinetobacter isolate NB35): 1 µg/mL | MBC (Acinetobacter baumannii [6]; Acinetobacter isolate NB36): 1 µg/mL | MIC (Acinetobacter baumannii [6]; Acinetobacter isolate NB36): 1 µg/mL | MBC (Acinetobacter baumannii [6]; Acinetobacter isolate NB37): >16 µg/mL | MIC (Acinetobacter baumannii [6]; Acinetobacter isolate NB37): 1 µg/mL | MBC (Acinetobacter baumannii [6]; Acinetobacter isolate NB38): >16 µg/mL | MIC (Acinetobacter baumannii [6]; Acinetobacter isolate NB38): 1 µg/mL | MBC (Acinetobacter baumannii [6]; Acinetobacter isolate NB39): 8 µg/mL | MIC (Acinetobacter baumannii [6]; Acinetobacter isolate NB39): 1 µg/mL | MBC (Acinetobacter baumannii [6]; Acinetobacter isolate NB40): >16 µg/mL | MIC (Acinetobacter baumannii [6]; Acinetobacter isolate NB40): 1 µg/mL | MBC 50 (Acinetobacter baumannii [6]; Acinetobacter, each drug alone): 4 µg/mL | MBC 90 (Acinetobacter baumannii [6]; Acinetobacter, each drug alone): >16 µg/mL | MIC50 (Acinetobacter baumannii [6]; Acinetobacter, each drug alone): 1 µg/mL | MIC90 (Acinetobacter baumannii [6]; Acinetobacter, each drug alone): 1 µg/mL
